Measurements published in PubChem BioAssay (NCI).
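Cultured in 96-well plates, cells were exposed to test compound for 48 hours across five concentrations. GI50 is the concentration that inhibits growth by half. The concentration for full growth arrest is given as TGI.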

Columns and labels:
Assay in all cases: NCI-60 cell line screen, 48 h
[1] = test system: HCC-2998 colon
[2] = test system: DU-145 prostate
[3] = test system: A498 renal
[4] = test system: NCI-H460 lung
[5] = test system: SK-MEL-5 melanoma
[6] = test system: OVCAR-4 ovarian
[7] = test system: SK-OV-3 ovarian
[8] = test system: BT-549 breast
[9] = test system: OVCAR-8 ovarian
[10] = test system: ACHN renal
[11] = test system: SF-539 CNS
[12] = test system: M14 melanoma
[13] = test system: U251 CNS
[14] = test system: SF-295 CNS
[15] = test system: NCI-H226 lung
[16] = test system: HCT-116 colon
[17] = test system: MALME-3M melanoma
[18] = test system: HOP-62 NSCLC
[19] = test system: SNB-75 CNS
[20] = test system: MDA-MB-435
[21] = test system: SK-MEL-28 melanoma
[22] = test system: SN12C renal
[23] = test system: NCI-H522 lung
[24] = test system: MDA-MB-231 breast
[25] = test system: KM12 colon
[26] = test system: HOP-92 NSCLC
[27] = test system: SNB-19 CNS
[28] = test system: COLO 205 colon
[29] = test system: CAKI-1 renal
[30] = test system: NCI/ADR-RES ovarian
[31] = test system: RXF 393 renal
[32] = test system: OVCAR-5 ovarian
[33] = test system: HT29 colon
[34] = test system: SK-MEL-2 melanoma
[35] = test system: MOLT-4 leukemia
[36] = test system: CCRF-CEM leukemia
[37] = test system: MCF7 breast
[38] = test system: UO-31 renal
[39] = test system: UACC-62 melanoma
[40] = test system: K-562 leukemia
[41] = test system: LOX IMVI melanoma
[42] = test system: IGROV1 ovarian
[43] = test system: PC-3 prostate
[44] = test system: SW-620 colon
[45] = test system: OVCAR-3 ovarian
[46] = test system: EKVX NSCLC
[47] = test system: 786-0 renal
[48] = test system: UACC-257 melanoma
[49] = test system: A549 NSCLC
[50] = test system: RPMI-8226 leukemia
[51] = test system: NCI-H23 lung
[52] = test system: TK-10 renal
[53] = test system: SF-268 CNS
[54] = test system: T-47D breast
[55] = test system: HS 578T breast
[56] = test system: HL-60(TB) leukemia
[57] = test system: SR leukemia
[58] = test system: HCT-15 colon

Compound: COc1nc2c(c(=O)[nH]1)N=C(c1ccccc1)CC(c1ccccc1)N2 (stereo not given)
- TGI [1]: > 100 µM
- TGI [2]: > 100 µM
- TGI [3]: > 100 µM
- TGI [4]: > 100 µM
- TGI [5]: > 100 µM
- TGI [6]: 81.4 µM
- TGI [7]: > 100 µM
- TGI [8]: > 100 µM
- TGI [9]: > 100 µM
- TGI [10]: > 100 µM
- TGI [11]: > 100 µM
- TGI [12]: > 100 µM
- TGI [13]: > 100 µM
- TGI [14]: > 100 µM
- TGI [15]: > 100 µM
- TGI [16]: > 100 µM
- TGI [17]: > 100 µM
- TGI [18]: > 100 µM
- TGI [19]: 52.5 µM
- TGI [20]: > 100 µM
- TGI [21]: > 100 µM
- TGI [22]: > 100 µM
- TGI [23]: > 100 µM
- TGI [24]: 81.6 µM
- TGI [25]: > 100 µM
- TGI [26]: > 100 µM
- TGI [27]: > 100 µM
- TGI [28]: > 100 µM
- TGI [29]: > 100 µM
- TGI [30]: > 100 µM
- TGI [31]: 71.7 µM
- TGI [32]: > 100 µM
- TGI [33]: > 100 µM
- TGI [34]: > 100 µM
- TGI [35]: 96.9 µM
- TGI [36]: > 100 µM
- TGI [37]: > 100 µM
- TGI [38]: > 100 µM
- TGI [39]: > 100 µM
- TGI [40]: 60.3 µM
- TGI [41]: > 100 µM
- TGI [42]: > 100 µM
- TGI [43]: > 100 µM
- TGI [44]: > 100 µM
- TGI [45]: > 100 µM
- TGI [46]: > 100 µM
- TGI [47]: > 100 µM
- TGI [48]: > 100 µM
- TGI [49]: > 100 µM
- TGI [50]: 75 µM
- TGI [51]: > 100 µM

Compound: COc1nc2c(c(=O)n1C)CN(c1ccccc1)C(=O)CN2C
- GI50 [1]: > 100 µM
- TGI [1]: > 100 µM
- GI50 [2]: 61.1 µM
- TGI [2]: > 100 µM
- GI50 [4]: 60.2 µM
- TGI [4]: > 100 µM
- GI50 [52]: 51.1 µM
- TGI [52]: > 100 µM
- GI50 [5]: 26.9 µM
- TGI [5]: > 100 µM
- GI50 [53]: 36.8 µM
- TGI [53]: > 100 µM
- GI50 [6]: 71.2 µM
- TGI [6]: > 100 µM
- GI50 [7]: > 100 µM
- TGI [7]: > 100 µM
- GI50 [8]: 33.2 µM
- TGI [8]: > 100 µM
- GI50 [9]: 74.5 µM
- TGI [9]: > 100 µM
- GI50 [10]: 49.9 µM
- TGI [10]: > 100 µM
- GI50 [11]: > 100 µM
- TGI [11]: > 100 µM
- GI50 [12]: 62.6 µM
- TGI [12]: > 100 µM
- GI50 [13]: 78.9 µM
- TGI [13]: > 100 µM
- GI50 [54]: 11.1 µM
- TGI [54]: > 100 µM
- GI50 [14]: 52.6 µM
- TGI [14]: > 100 µM
- GI50 [15]: 83.8 µM
- TGI [15]: > 100 µM
- GI50 [16]: 60.5 µM
- TGI [16]: > 100 µM
- GI50 [17]: 46.7 µM
- TGI [17]: > 100 µM
- GI50 [18]: > 100 µM
- TGI [18]: > 100 µM
- GI50 [19]: 48.9 µM
- TGI [19]: > 100 µM
- GI50 [20]: > 100 µM
- TGI [20]: > 100 µM
- GI50 [21]: 70 µM
- TGI [21]: > 100 µM
- GI50 [22]: 56.4 µM
- TGI [22]: > 100 µM
- GI50 [23]: 96.7 µM
- TGI [23]: > 100 µM
- GI50 [24]: 41.7 µM
- TGI [24]: > 100 µM
- GI50 [25]: 27.3 µM
- TGI [25]: > 100 µM
- GI50 [26]: 852 nM
- TGI [26]: 55.1 µM
- GI50 [27]: 60.4 µM
- TGI [27]: > 100 µM
- GI50 [28]: 40.6 µM
- TGI [28]: > 100 µM
- GI50 [29]: 20.1 µM
- TGI [29]: > 100 µM
- GI50 [30]: 72.2 µM
- TGI [30]: > 100 µM
- GI50 [31]: 54.3 µM
- TGI [31]: > 100 µM
- GI50 [32]: > 100 µM
- TGI [32]: > 100 µM
- GI50 [33]: 60.9 µM
- TGI [33]: > 100 µM
- GI50 [34]: > 100 µM
- TGI [34]: > 100 µM
- GI50 [35]: 33.9 µM
- TGI [35]: > 100 µM
- GI50 [36]: > 100 µM
- TGI [36]: > 100 µM
- GI50 [37]: 6.25 µM
- TGI [37]: > 100 µM
- GI50 [38]: 5.73 µM
- TGI [38]: > 100 µM
- GI50 [39]: 45.8 µM
- TGI [39]: > 100 µM
- GI50 [40]: 59.7 µM
- TGI [40]: > 100 µM
- GI50 [41]: > 100 µM
- TGI [41]: > 100 µM
- GI50 [55]: 13 µM
- TGI [55]: 73.4 µM
- GI50 [56]: 49.8 µM
- TGI [56]: > 100 µM
- GI50 [42]: 4.33 µM
- TGI [42]: > 100 µM
- GI50 [43]: 20 µM
- TGI [43]: > 100 µM
- GI50 [57]: 17 µM
- TGI [57]: > 100 µM
- GI50 [44]: > 100 µM
- TGI [44]: > 100 µM
- GI50 [45]: 38.4 µM
- TGI [45]: > 100 µM
- GI50 [46]: 19.9 µM
- TGI [46]: > 100 µM
- GI50 [47]: > 100 µM
- TGI [47]: > 100 µM
- GI50 [48]: > 100 µM
- TGI [48]: > 100 µM
- GI50 [58]: 56.7 µM
- TGI [58]: > 100 µM
- GI50 [49]: > 100 µM
- TGI [49]: > 100 µM
- GI50 [50]: 72.6 µM
- TGI [50]: > 100 µM
- GI50 [51]: 95.1 µM
- TGI [51]: > 100 µM
